# In DBAASP:
# What was measured:
# Assay in all cases: ≥ marks a high value that may be exact or a test limit, other limits are often not marked, values filed in µg/mL are converted to µM
# [1] = tested on: Candida albicans NCPF 1467
# [2] = tested on: Escherichia coli NCTC 10418
# [3] = tested on: Staphylococcus aureus NCTC 10788
# [4] = tested on: Candida albicans ATCC 36232
# [5] = tested on: Escherichia coli ATCC 2592
# [6] = tested on: Micrococcus luteus ATCC 9341
# [7] = tested on: Proteus vulgaris ATCC 6380
# [8] = tested on: Pseudomonas aeruginosa ATCC 9027
# [9] = tested on: Staphylococcus aureus ATCC 6538
# Staphylococcus aureus = tested on: Staphylococcus aureus
# [10] = tested on: Escherichia coli ATCC 25922
# [11] = tested on: Klebsiella pneumoniae ATCC 13883
# [12] = tested on: Pseudomonas aeruginosa PAO1
# [13] = tested on: Staphylococcus aureus JE2
# [14] = tested on: Candida albicans ATCC 10231
# [15] = tested on: Cryptococcus neoformans ATCC 32045
# [16] = tested on: Pseudomonas aeruginosa ATCC 10145
# [17] = tested on: Staphylococcus aureus ATCC 33591
# [18] = tested on: Klebsiella pneumoniae E406-17
# [19] = tested on: Pseudomonas aeruginosa E411-17
# [20] = tested on: Staphylococcus aureus M838-17
# [21] = tested on: Staphylococcus aureus USA 300 LAC
# Escherichia coli BW25113 = tested on: Escherichia coli BW25113
# Escherichia coli J2210 = tested on: Escherichia coli J2210
# Escherichia coli JJ2489 = tested on: Escherichia coli JJ2489
# Escherichia coli JW0013 = tested on: Escherichia coli JW0013
# [22] = tested on: Escherichia coli JW0368 ΔsbmA
# [23] = tested on: Escherichia coli JW2778 ΔygdD
# Escherichia coli MC1041 = tested on: Escherichia coli MC1041
# [24] = tested on: Salmonella enterica subsp. enterica serovar Enteritidis MH91989
# [25] = tested on: Salmonella typhimurium SL1344
compound,measurement,setting,value
CC[C@H](C)[C@H](NC(=O)[C@H](C)NC(=O)[C@H](Cc1cnc[nH]1)NC(=O)[C@@H]1CCCN1C(=O)[C@@H](NC(=O)[C@H](CC(C)C)NC(=O)[C@H](CO)NC(=O)[C@H](Cc1ccccc1)NC(=O)[C@H](CC(C)C)NC(=O)[C@@H](N)Cc1ccccc1)[C@@H](C)CC)C(=O)N[C@@H](CO)C(=O)NCC(=O)N[C@@H](CC(C)C)C(=O)N[C@H](C(=O)N[C@@H](CO)C(=O)N[C@@H](C)C(=O)N[C@@H](Cc1ccccc1)C(=O)N[C@H](C=O)CCCCN)[C@@H](C)CC [FLFSLIPHAISGLISAFK],MIC,[1],16 µM
same,MIC,[2],≥ 250 µM
same,MIC,[3],8 µM
CC[C@H](C)[C@H](NC(=O)[C@H](C)NC(=O)[C@@H]1CCCN1C(=O)[C@H](CC(C)C)NC(=O)[C@@H](N)Cc1ccccc1)C(=O)N[C@@H](C)C(=O)NCC(=O)N[C@@H](CC(C)C)C(=O)N[C@@H](C)C(=O)N[C@@H](C)C(=O)N[C@@H](CCCCN)C(=O)N[C@@H](Cc1ccccc1)C(=O)N[C@@H](CC(C)C)C(=O)N1CCC[C@H]1C(=O)N[C@@H](CCCCN)C(=O)N[C@H](C(=O)N[C@@H](Cc1ccccc1)C(=O)N[C@H]1CSSC[C@@H](C(=O)O)NC(=O)[C@H](CCCCN)NC(=O)[C@H](CCCCN)NC(=O)[C@H]([C@@H](C)O)NC(=O)[C@H]([C@@H](C)CC)NC(=O)[C@H](C)NC1=O)[C@@H](C)CC [FLPAIAGLAAKFLPKIFCAITKKC],MIC,[1],3.12 µM
same,MIC,[2],12.5 µM
same,MIC,[3],3.12 µM
CC[C@H](C)[C@H](NC(=O)[C@H](CCCCN)NC(=O)[C@@H]1CCCN1C(=O)[C@H](CC(C)C)NC(=O)[C@H](Cc1ccccc1)NC(=O)[C@H](CC(N)=O)NC(=O)[C@H](C)NC(=O)[C@H](C)NC(=O)[C@H](CC(C)C)NC(=O)CNC(=O)[C@H](C)NC(=O)[C@H](CC(C)C)NC(=O)[C@H](CC(C)C)NC(=O)[C@@H]1CCCN1C(=O)[C@H](CC(C)C)NC(=O)[C@@H](N)Cc1ccccc1)C(=O)N[C@@H](Cc1ccccc1)C(=O)N[C@@H](CS)C(=O)N[C@@H](CCCCN)C(=O)N[C@H](C(=O)N[C@H](C(=O)N[C@@H](CCCN=C(N)N)C(=O)N[C@@H](CCCCN)C(=O)N[C@@H](CS)C(N)=O)[C@@H](C)O)[C@@H](C)CC [FLPLLAGLAANFLPKIFCKITRKC],MIC,[4],1.16 µM
same,MIC,[5],2.33 µM
same,MIC,[6],1.16 µM
same,MIC,[7],≥ 37.3 µM
same,MIC,[8],1.16 µM
same,MIC,[9],2.33 µM
same,MIC,Staphylococcus aureus,2.33 µM
CC(C)C[C@H](NC(=O)[C@H](CC(C)C)NC(=O)[C@H](CCCCN)NC(=O)[C@H](CC(C)C)NC(=O)CNC(=O)[C@H](CC(C)C)NC(=O)[C@H](CCCCN)NC(=O)[C@H](CC(C)C)NC(=O)[C@H](CC(C)C)NC(=O)[C@H](CC(C)C)NC(=O)[C@H](CCCCN)NC(=O)[C@H](CC(C)C)NC(=O)[C@@H](N)CCCCN)C(N)=O [KLKLLLKLGLKLL],MIC,[10],> 25 µM
same,MIC,[11],25 µM
same,MIC,[12],> 25 µM
same,MIC,[13],1.56 µM
CC(C)C[C@H](NC(=O)[C@H](CCCCN)NC(=O)[C@H](CCCCN)NC(=O)[C@H](CC(C)C)NC(=O)[C@H](CC(C)C)NC(=O)[C@H](CCCCN)NC(=O)[C@H](CCCCN)NC(=O)[C@H](CC(C)C)NC(=O)[C@H](CC(C)C)NC(=O)[C@H](CCCCN)NC(=O)[C@H](CCCCN)NC(=O)[C@H](CC(C)C)NC(=O)[C@H](CC(C)C)NC(=O)[C@H](CCCCN)NC(=O)[C@H](CCCCN)NC(=O)[C@H](CC(C)C)NC(=O)[C@H](CC(C)C)NC(=O)[C@H](CCCCN)NC(=O)[C@H](CCCCN)NC(=O)[C@H](CC(C)C)NC(=O)[C@H](CC(C)C)NC(=O)[C@H](CCCCN)NC(=O)[C@H](CCCCN)NC(=O)[C@@H](N)CC(C)C)C(=O)O [LKKLLKKLLKKLLKKLLKKLLKKL],MIC,[14],121 µM
same,MIC,[15],≥ 42.9 µM
same,MIC,[5],30.2 µM
same,MIC,[16],22.3 µM
same,MIC,[17],≥ 85.8 µM
CC(C)C[C@H](NC(=O)[C@H](CCCCN)NC(=O)[C@H](CC(C)C)NC(=O)[C@H](CCCCN)NC(=O)[C@H](CC(C)C)NC(=O)[C@H](CCCCN)NC(=O)[C@H](CC(C)C)NC(=O)[C@H](CCCCN)NC(=O)[C@H](CC(C)C)NC(=O)[C@H](CCCCN)NC(=O)[C@H](CC(C)C)NC(=O)[C@H](CCCCN)NC(=O)[C@H](CC(C)C)NC(=O)[C@H](CCCCN)NC(=O)[C@H](CC(C)C)NC(=O)[C@H](CCCCN)NC(=O)[C@H](CC(C)C)NC(=O)[C@H](CCCCN)NC(=O)[C@H](CC(C)C)NC(=O)[C@H](CCCCN)NC(=O)[C@@H](N)CC(C)C)C(=O)N[C@@H](CCCCN)C(=O)O [LKLKLKLKLKLKLKLKLKLKLK],MIC,[14],132 µM
same,MIC,[15],16.7 µM
same,MIC,[5],≥ 46.8 µM
same,MIC,[16],23.2 µM
same,MIC,[17],≥ 93.5 µM
CC[C@H](C)[C@H](NC(=O)[C@H](CCCCN)NC(=O)[C@@H](N)CCCN=C(N)N)C(=O)N[C@@H](Cc1c[nH]c2ccccc12)C(=O)N[C@@H](Cc1c[nH]c2ccccc12)C(=O)N[C@@H](Cc1c[nH]c2ccccc12)C(=O)N[C@@H](Cc1c[nH]c2ccccc12)C(=O)N[C@@H](CC(C)C)C(N)=O [RKIWWWWL],MIC,[10],6.2 µM
same,MIC,[11],4.38 µM
same,MIC,[18],12.5 µM
same,MIC,[19],≥ 50 µM
same,MIC,[20],8.8 µM
same,MIC,[21],4.38 µM
CC[C@H](C)[C@H](NC(=O)[C@H](CCCN=C(N)N)NC(=O)[C@@H](N)CCCN=C(N)N)C(=O)N[C@@H](CCCCN)C(=O)N[C@@H](CCCCN)C(=O)N[C@@H](CCCN=C(N)N)C(=O)N1CCC[C@H]1C(=O)N1CCC[C@H]1C(=O)N[C@@H](CCCN=C(N)N)C(=O)N[C@@H](CC(C)C)C(=O)N1CCC[C@H]1C(=O)N[C@@H](CCCN=C(N)N)C(=O)N1CCC[C@H]1C(=O)N[C@@H](CCCN=C(N)N)C(=O)N1CCC[C@H]1C(=O)N[C@@H](CCCN=C(N)N)C(=O)O [RRIKKRPPRLPRPRPR],MIC,Escherichia coli BW25113,0.078 µM
same,MIC,Escherichia coli J2210,0.157 µM
same,MIC,Escherichia coli JJ2489,0.12 µM
same,MIC,Escherichia coli JW0013,0.06 µM
same,MIC,[22],0.06 µM
same,MIC,[23],0.12 µM
same,MIC,Escherichia coli MC1041,0.06 µM
same,MIC,[24],0.12 µM
same,MIC,[25],0.12 µM
CC[C@H](C)[C@H](NC(=O)[C@H](CCCN=C(N)N)NC(=O)[C@@H](N)CCCN=C(N)N)C(=O)N[C@@H](CCCCN)C(=O)N1CCC[C@H]1C(=O)N[C@@H](CCCN=C(N)N)C(=O)N1CCC[C@H]1C(=O)N1CCC[C@H]1C(=O)N[C@@H](CCCN=C(N)N)C(=O)N[C@@H](CC(C)C)C(=O)N1CCC[C@H]1C(=O)N[C@@H](CCCN=C(N)N)C(=O)N1CCC[C@H]1C(=O)N[C@@H](CCCN=C(N)N)C(=O)N1CCC[C@H]1C(=O)N[C@@H](CCCCN)C(=O)O [RRIKPRPPRLPRPRPK],MIC,Escherichia coli BW25113,0.06 µM
same,MIC,Escherichia coli J2210,0.12 µM
same,MIC,Escherichia coli JJ2489,0.12 µM
same,MIC,Escherichia coli JW0013,0.06 µM
same,MIC,[22],0.06 µM
same,MIC,[23],0.12 µM
same,MIC,Escherichia coli MC1041,0.06 µM
same,MIC,[24],0.157 µM
same,MIC,[25],0.12 µM
